# Assay results taken from ChEMBL document CHEMBL4396888, “Design and Synthesis of Potent, Selective Inhibitors of Protein Arginine Methyltransferase 4 against Acute Myeloid Leukemia” (J Med Chem, 2019).
# Calls of active or inactive are those of the source. The calls are words filed in the database; no cut-off is given here.
# What was measured:
# [1] = biological target: T1, Histone-arginine methyltransferase CARM1 (Homo sapiens, UniProt Q86X55); assay: Inhibition of PRMT4 (unknown origin) using histone H3 (21 to 44 residues) as substrate measured after 60 mins in presence of SAM by AlphaLisa assay
# T1 sequence (Q86X55 whole entry): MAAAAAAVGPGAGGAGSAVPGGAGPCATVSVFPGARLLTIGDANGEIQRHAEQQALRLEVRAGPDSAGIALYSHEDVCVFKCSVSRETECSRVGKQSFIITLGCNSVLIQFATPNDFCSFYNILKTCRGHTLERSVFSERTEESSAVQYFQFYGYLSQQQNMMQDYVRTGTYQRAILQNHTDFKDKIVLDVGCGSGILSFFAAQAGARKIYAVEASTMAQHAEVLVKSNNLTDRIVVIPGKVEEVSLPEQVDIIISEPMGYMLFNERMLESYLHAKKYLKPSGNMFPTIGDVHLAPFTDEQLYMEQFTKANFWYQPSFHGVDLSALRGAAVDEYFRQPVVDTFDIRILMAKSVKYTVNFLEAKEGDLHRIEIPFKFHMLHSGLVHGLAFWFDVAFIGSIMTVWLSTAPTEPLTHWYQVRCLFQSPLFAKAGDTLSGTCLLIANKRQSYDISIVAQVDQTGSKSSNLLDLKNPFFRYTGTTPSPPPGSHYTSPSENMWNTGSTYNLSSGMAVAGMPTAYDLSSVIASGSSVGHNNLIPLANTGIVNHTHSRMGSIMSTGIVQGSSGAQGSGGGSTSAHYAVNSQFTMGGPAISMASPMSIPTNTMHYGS
# [2] = biological target: Protein arginine N-methyltransferase 1 (Homo sapiens, UniProt Q99873); assay: Inhibition of PRMT1 (unknown origin) preincubated for 15 mins followed by substrate addition and measured after 60 mins by AlphaLisa assay
# [3] = biological target: Protein arginine N-methyltransferase 6 (Homo sapiens, UniProt Q96LA8); assay: Inhibition of PRMT6 (unknown origin) preincubated for 15 mins followed by substrate addition and measured after 60 mins by AlphaLisa assay
# [4] = biological target: Protein arginine N-methyltransferase 3 (Homo sapiens, UniProt O60678); assay: Inhibition of PRMT3 (unknown origin) preincubated for 15 mins followed by substrate addition and measured after 60 mins by AlphaLisa assay
# [5] = biological target: Protein arginine N-methyltransferase 8 (Homo sapiens, UniProt Q9NR22); assay: Inhibition of PRMT8 (unknown origin) preincubated for 15 mins followed by substrate addition and measured after 60 mins by AlphaLisa assay
# [6] = biological target: Protein arginine N-methyltransferase 5 (Homo sapiens, UniProt O14744); assay: Inhibition of PRMT5 (unknown origin) preincubated for 15 mins followed by substrate addition and measured after 60 mins by AlphaLisa assay
# [7] = biological target: Histone-lysine N-methyltransferase EZH2 (Homo sapiens) (UniProt Q15910); assay: Inhibition of EZH2 (unknown origin) up to 50 uM preincubated for 10 mins followed by peptide substrate addition and measured after 4 hrs in presence of SAM by HTRF assay
# [8] = biological target: Histone-lysine N-methyltransferase 2A (Homo sapiens) (UniProt Q03164); assay: Inhibition of MLL1 (unknown origin) up to 50 uM preincubated for 10 mins followed by peptide substrate addition and measured after 4 hrs in presence of SAM by HTRF assay
# [9] = biological target: Histone-lysine N-methyltransferase NSD2 (Homo sapiens) (UniProt O96028); assay: Inhibition of NSD2 (unknown origin) up to 50 uM preincubated for 15 mins followed by substrate addition and measured after 60 mins by AlphaLisa assay
# [10] = biological target: Histone-lysine N-methyltransferase, H3 lysine-79 specific (Homo sapiens) (UniProt Q8TEK3); assay: Inhibition of DOT1L (unknown origin) up to 50 uM preincubated for 15 mins followed by substrate addition and measured after 60 mins by AlphaLisa assay
# [11] = biological target: Histone-lysine N-methyltransferase SETD2 (Homo sapiens) (UniProt Q9BYW2); assay: Inhibition of SETD2 (unknown origin) up to 50 uM
# MV4-11 = assay: Antiproliferative activity against human MV4-11 cells measured after 6 days by CCK8/SRB assay; format: functional, cell-based
# THP-1 = assay: Antiproliferative activity against human THP1 cells measured after 6 days by CCK8/SRB assay; format: functional, cell-based
# RS4-11 = assay: Antiproliferative activity against human RS4:11 cells measured after 6 days by CCK8/SRB assay; format: functional, cell-based
# MONO-MAC-6 = assay: Antiproliferative activity against human MONO-MAC-6 cells measured after 6 days by CCK8/SRB assay; format: functional, cell-based
# K562 = assay: Antiproliferative activity against human K562 cells measured after 6 days by CCK8/SRB assay; format: functional, cell-based
# [12] = biological target: T1, Histone-arginine methyltransferase CARM1; assay: Inhibition of PRMT4 in human MOLM13 cells assessed as reduction in BAF155 dimethylation measured after 96 hrs by Western blotting analysis; format: cell-based
# [13] = Selectivity ratio of IC50 for antiproliferative activity against human MOLM13 cells to IC50 for inhibition of PRMT4 in human MOLM13 cells assessed as reduction in PABP1 dimethylation
# MOLM-13 = assay: Induction of apoptosis in human MOLM13 cells measured after 96 hrs by Annexin V-FITC/propidium iodide staining-based flow cytometry; format: functional, cell-based
# [14] = Volume of distribution at steady state in ICR mouse at 3 mg/kg, iv by mass spectrometric analysis; format: ADME, organism-based; conditions: in vivo, read-out: Vdss
# [15] = AUC (0 to last) in ICR mouse at 3 mg/kg, iv by mass spectrometric analysis; format: ADME, organism-based; set-up: dose 3 mg/kg, route intravenous, time 0 - last; conditions: in vivo
# [16] = AUC (0 to infinity) in ICR mouse at 3 mg/kg, iv by mass spectrometric analysis; format: ADME, organism-based; set-up: dose 3 mg/kg, route intravenous, time infinity; conditions: in vivo
# [17] = Half life in ICR mouse at 10 mg/kg, po administered via gavage by mass spectrometric analysis; format: ADME, organism-based; conditions: in vivo
# [18] = Oral bioavailability in ICR mouse at 10 mg/kg administered via gavage by mass spectrometric analysis; format: ADME, organism-based; conditions: in vivo
# [19] = Drug level in ICR mouse plasma at 10 mg/kg, po administered via gavage measured after 0.25 to 24 hrs by mass spectrometric analysis; format: ADME, organism-based; conditions: in vivo
# [20] = Protein binding in mouse plasma at 2 uM; format: ADME, cell-free; conditions: read-out: PPB (converted)
# Mus musculus = assay: In vivo inhibition of PRMT4 in nude BALB/c mouse xenografted with human MOLM13 cells assessed as reduction in BAF155 dimethylation at 100 mg/kg, po administered daily for 18 days measured 6 hrs post-last dose by Western blot analysis; format: functional, organism-based
# [21] = Ratio of drug level in tumor of nude BALB/c mouse xenografted with human MOLM13 cells to IC50 for antiproliferative activity against human MOLM13 cells; format: cell-based
# [22] = Toxicity in nude BALB/c mouse xenografted with human MOLM13 cells assessed as body weight loss at 100 mg/kg, po administered daily for 18 days measured 2 to 3 times a week during compound dosing; format: organism-based; conditions: in vivo, 432 h
# [23] = Toxicity in nude BALB/c mouse xenografted with human MOLM13 cells assessed as visible changes at 100 mg/kg, po administered daily for 18 days; format: organism-based; conditions: in vivo, 432 h
# Chain of Histone-lysine N-methyltransferase, H3 lysine-79 specific (Homo sapiens) (Q8TEK3 whole entry, looked up): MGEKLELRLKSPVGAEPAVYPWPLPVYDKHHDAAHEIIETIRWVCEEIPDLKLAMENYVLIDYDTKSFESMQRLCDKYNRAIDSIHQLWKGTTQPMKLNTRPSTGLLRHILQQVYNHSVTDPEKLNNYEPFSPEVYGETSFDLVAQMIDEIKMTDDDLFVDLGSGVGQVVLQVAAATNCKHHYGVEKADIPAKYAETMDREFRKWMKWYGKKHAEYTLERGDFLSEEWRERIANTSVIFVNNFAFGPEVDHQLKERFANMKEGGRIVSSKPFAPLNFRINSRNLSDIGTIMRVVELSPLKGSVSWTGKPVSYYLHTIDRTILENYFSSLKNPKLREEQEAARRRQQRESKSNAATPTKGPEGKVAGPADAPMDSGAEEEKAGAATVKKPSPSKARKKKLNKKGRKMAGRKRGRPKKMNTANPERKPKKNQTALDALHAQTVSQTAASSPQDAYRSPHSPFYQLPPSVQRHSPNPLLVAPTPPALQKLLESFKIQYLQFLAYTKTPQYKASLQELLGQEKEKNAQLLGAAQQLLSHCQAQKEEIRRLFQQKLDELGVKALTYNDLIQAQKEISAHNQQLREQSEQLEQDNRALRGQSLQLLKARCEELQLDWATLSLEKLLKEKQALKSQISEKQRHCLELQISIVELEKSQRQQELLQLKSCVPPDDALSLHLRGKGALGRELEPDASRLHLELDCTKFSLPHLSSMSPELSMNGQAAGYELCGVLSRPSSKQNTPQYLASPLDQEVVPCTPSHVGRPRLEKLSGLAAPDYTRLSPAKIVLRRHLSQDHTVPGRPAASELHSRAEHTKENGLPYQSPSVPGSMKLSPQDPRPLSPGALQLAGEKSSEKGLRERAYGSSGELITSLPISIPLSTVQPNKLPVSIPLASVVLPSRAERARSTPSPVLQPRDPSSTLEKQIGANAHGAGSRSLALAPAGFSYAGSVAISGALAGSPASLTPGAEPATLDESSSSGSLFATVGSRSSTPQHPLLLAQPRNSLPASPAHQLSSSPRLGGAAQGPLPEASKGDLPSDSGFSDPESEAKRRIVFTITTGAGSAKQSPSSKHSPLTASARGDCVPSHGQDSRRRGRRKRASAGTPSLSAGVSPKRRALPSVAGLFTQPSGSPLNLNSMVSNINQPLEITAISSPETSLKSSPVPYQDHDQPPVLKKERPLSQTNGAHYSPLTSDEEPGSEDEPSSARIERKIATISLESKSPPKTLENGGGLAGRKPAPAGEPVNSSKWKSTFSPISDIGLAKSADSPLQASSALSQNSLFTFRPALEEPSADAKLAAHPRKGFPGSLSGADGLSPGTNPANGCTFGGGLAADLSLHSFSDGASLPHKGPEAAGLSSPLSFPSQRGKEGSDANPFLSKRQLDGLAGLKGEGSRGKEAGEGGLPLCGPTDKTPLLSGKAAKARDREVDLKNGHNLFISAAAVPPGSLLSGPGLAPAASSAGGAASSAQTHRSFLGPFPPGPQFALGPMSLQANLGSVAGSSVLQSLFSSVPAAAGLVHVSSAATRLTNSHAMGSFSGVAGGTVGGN
# Chain of Histone-lysine N-methyltransferase SETD2 (Homo sapiens) (Q9BYW2 whole entry): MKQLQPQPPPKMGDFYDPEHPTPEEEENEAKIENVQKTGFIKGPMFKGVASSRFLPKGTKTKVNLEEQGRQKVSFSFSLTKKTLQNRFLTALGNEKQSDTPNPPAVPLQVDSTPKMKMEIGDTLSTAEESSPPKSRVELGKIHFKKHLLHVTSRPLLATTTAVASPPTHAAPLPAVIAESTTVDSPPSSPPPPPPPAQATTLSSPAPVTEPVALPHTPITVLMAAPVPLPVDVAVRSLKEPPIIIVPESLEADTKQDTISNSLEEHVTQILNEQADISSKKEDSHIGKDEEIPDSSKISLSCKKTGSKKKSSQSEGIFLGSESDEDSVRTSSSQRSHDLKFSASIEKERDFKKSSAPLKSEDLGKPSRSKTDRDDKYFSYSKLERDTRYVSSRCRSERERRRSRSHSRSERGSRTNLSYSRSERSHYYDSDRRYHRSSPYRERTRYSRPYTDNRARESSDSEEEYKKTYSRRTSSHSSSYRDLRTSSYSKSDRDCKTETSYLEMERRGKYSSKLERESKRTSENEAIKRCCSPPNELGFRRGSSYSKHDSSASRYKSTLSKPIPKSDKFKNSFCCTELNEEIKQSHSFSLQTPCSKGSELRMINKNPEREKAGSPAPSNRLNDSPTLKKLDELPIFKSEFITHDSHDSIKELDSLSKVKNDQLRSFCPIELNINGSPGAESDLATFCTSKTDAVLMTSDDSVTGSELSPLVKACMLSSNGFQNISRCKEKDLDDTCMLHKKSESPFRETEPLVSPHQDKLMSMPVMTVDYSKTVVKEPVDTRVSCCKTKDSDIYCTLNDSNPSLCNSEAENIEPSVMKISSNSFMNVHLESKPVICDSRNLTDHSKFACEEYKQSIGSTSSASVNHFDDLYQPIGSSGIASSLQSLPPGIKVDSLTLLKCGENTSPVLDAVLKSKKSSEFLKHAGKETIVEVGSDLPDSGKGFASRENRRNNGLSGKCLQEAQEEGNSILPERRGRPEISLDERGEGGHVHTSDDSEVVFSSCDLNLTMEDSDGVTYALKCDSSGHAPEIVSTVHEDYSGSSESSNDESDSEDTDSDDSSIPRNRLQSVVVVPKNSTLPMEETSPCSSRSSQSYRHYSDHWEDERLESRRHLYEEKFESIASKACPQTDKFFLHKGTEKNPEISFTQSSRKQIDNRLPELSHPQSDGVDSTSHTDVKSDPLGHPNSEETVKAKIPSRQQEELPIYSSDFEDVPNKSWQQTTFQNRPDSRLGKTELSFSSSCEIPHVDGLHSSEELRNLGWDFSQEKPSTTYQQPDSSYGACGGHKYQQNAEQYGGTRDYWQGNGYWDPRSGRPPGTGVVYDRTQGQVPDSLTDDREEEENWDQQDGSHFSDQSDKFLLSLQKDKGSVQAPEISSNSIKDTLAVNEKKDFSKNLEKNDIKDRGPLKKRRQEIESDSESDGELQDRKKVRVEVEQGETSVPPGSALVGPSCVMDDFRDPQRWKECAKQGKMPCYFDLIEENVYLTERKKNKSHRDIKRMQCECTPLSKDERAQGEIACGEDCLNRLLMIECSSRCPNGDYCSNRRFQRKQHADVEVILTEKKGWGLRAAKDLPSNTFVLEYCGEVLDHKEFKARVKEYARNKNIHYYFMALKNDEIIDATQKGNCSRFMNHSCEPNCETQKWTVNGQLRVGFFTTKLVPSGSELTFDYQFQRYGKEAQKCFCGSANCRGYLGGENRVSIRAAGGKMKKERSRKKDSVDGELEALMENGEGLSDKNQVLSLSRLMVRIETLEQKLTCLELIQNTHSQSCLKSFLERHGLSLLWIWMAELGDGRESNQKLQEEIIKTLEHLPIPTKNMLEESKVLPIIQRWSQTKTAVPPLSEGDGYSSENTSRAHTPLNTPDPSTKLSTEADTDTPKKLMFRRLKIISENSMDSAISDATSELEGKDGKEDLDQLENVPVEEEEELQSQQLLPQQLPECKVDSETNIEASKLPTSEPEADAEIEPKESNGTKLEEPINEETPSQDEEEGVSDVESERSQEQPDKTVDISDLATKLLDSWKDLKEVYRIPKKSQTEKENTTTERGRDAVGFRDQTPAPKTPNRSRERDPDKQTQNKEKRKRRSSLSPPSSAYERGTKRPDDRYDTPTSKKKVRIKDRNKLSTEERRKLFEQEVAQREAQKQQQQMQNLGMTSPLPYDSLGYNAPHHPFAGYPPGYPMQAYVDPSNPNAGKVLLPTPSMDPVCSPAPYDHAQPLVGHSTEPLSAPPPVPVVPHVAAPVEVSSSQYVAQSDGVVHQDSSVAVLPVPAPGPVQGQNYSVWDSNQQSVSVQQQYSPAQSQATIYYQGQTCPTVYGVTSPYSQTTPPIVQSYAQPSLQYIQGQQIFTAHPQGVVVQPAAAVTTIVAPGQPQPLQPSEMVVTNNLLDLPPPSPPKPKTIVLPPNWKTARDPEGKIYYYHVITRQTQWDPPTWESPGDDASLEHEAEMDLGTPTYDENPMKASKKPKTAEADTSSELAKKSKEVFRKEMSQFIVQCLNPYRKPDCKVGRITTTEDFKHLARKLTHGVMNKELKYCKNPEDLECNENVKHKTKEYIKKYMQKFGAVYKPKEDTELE
# Chain of Histone-lysine N-methyltransferase EZH2 (Homo sapiens) (Q15910 whole entry, looked up): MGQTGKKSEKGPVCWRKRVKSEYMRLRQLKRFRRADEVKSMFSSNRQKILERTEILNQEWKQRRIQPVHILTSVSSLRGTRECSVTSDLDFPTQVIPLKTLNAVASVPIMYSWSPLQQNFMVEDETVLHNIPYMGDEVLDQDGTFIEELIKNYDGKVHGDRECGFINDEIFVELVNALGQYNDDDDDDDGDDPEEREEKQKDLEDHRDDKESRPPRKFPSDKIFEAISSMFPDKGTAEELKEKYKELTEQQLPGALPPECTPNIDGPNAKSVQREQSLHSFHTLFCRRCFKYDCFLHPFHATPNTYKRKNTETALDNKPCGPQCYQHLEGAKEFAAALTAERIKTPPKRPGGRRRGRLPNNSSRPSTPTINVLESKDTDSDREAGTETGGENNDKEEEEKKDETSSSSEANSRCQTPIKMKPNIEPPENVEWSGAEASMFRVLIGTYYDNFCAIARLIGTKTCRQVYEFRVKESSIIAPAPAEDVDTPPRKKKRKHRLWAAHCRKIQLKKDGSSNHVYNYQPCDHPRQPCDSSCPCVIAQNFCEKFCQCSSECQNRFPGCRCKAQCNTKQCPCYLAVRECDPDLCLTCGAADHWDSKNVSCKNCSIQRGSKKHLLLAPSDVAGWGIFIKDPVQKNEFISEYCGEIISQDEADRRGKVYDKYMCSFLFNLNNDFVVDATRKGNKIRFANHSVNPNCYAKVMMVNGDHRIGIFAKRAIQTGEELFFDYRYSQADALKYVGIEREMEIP
smiles,measurement,setting,value
CNC[C@@H](O)CN1CCc2c(cccc2OCc2ccc(-c3nccs3)cc2)C1,IC50,[1],21 nM
same,IC50,[2],8.6 µM
same,IC50,[3],7.9 µM
same,IC50,[4],> 10 µM
same,IC50,[5],3.7 µM
same,IC50,[6],> 30 µM
same,inhibition,[7],inactive
same,inhibition,[8],inactive
same,inhibition,[9],inactive
same,inhibition,[10],inactive
same,inhibition,[11],inactive
same,Activity,MV4-11,Dose-dependent effect
same,Activity,THP-1,Dose-dependent effect
same,Activity,RS4-11,Dose-dependent effect
same,Activity,MONO-MAC-6,Dose-dependent effect
same,Activity,K562,Dose-dependent effect
same,IC50,[12],369 nM
same,Ratio IC50,[13],10
same,Activity,MOLM-13,Dose-dependent effect
same,Vd,[14],42.6 L/kg
same,AUC(0-t),[15],869 ng·h/mL
same,AUC(0-inf),[16],1160 ng·h/mL
same,half-life,[17],1450 min
same,bioavailability,[18],48.8%
same,concentration,[19],120 nM
same,fraction unbound at 2 µM,[20],0.02
same,inhibition,Mus musculus,Active
same,Ratio,[21],20 to 30
same,Activity,[22],Non-Toxic
same,Activity,[23],Non-Toxic
